Assay: method code SF, from DOI: 10.1016/j.ejps.2012.10.019, PMID: 23131797
Conditions: pH 2.0

logD	Compound
3.72	O=C(/C=C/c1ccc2c(c1)OCO2)Nc1ccc2c(c1)OCO2

Same assay, conditions: pH 5.0

Compound	logD
O=C1c2ccc(-c3ccc4c(c3)C(=O)N(CCO)C4=O)cc2C(=O)N1CCO	3.19
O=C(Nc1ccc(S(=O)(=O)c2ccc(NC(=O)c3cccs3)cc2)cc1)c1cccs1	4.46
COC(=O)CN(c1ccccc1)S(=O)(=O)c1ccc(OC)cc1	3.43
CCOc1nc(C#N)nc(N2CCOCC2)n1	2.46
COc1ccc(NC(=O)c2cc(NC(=O)c3ccccc3)cc(C(=O)Nc3ccc(OC)cc3)c2)cc1	5.59
c1ccc(-n2nnnc2OCCOc2nnnn2-c2ccccc2)cc1	3.72
COc1cccc(-c2cn3c4c(=O)n(C)c(=O)n(C)c4nc3n2-c2cccc(C)c2)c1	4.16
N#CCc1nc(-c2ccc3c(c2)OCCO3)cs1	2.92
CN(C1=NS(=O)(=O)c2ccccc21)c1ccc(OC(=O)c2ccccc2)cc1	4.26
Cc1ccc(S(=O)(=O)N(CCO)Cc2ccccc2)cc1	3.69
COc1nc(Cl)nc(Nc2ccccc2)n1	2.89
C#Cc1cccc(NC(=O)c2cc(C(=O)Nc3cccc(C#C)c3)cc(N3C(=O)c4ccccc4C3=O)c2)c1	6.85
CCOc1ccc(NC=C(S(=O)(=O)c2ccc(C)cc2)S(=O)(=O)c2ccc(C)cc2)cc1	5.64
O=C(NC1CCCC1)C1c2ccccc2Oc2ccccc21	3.95
CC(NS(C)(=O)=O)c1ccccc1 (stereo not drawn)	1.8
Cc1cc2nsnc2c([N+](=O)[O-])c1C	2.64
COc1ccc(C(=O)Nc2cccc(F)c2)cc1S(=O)(=O)N1CCOCC1	3.64
COC(=O)/C=C/CN1C(=O)c2ccccc2C1=O	2.46
CC(=O)Oc1cccc(N2C(=O)c3ccc(C(=O)c4ccc5c(c4)C(=O)N(c4cccc(OC(C)=O)c4)C5=O)cc3C2=O)c1	5.13
Cc1ccc(NC(=O)CSc2nnc(Cc3ccccc3)o2)cc1Cl	4.85
Cc1c(OCc2ccccc2)cccc1[N+](=O)[O-]	4.41
C=CCOC(=O)COc1ccc2c(=O)c(-c3ccc(Cl)cc3)c(C)oc2c1	4.84
O=C(CSCc1ccccc1)Nc1ccc(-c2ccc([N+](=O)[O-])cc2)cc1	5.38
O=C(Nc1ccccc1C(F)(F)F)NC1CCCCC1	4
O=C1CCCC2=C1C(c1ccc(OCc3ccccc3F)cc1)C1=C(CCCC1=O)O2	4.92
O=C(COC(=O)c1cccc(S(=O)(=O)N2CCc3ccccc32)c1)Nc1ccc(F)c(F)c1F	5.31
O=C(Nc1ccc(OC(F)F)cc1)c1ccc(COc2ccc(I)cc2)o1	5.99

Continued, values first:

logD	Compound
6.28	CCCCCCSC1=C(C#N)C(c2cccs2)C(C(=O)Nc2ccccc2OC)=C(C)N1 (stereo not drawn)
3.93	CCCS(=O)(=O)c1c(S(=O)(=O)CCC)c2cnccn2c1C(=O)c1ccc(C)cc1
3.63	CCOC(=O)c1c(C)[nH]c(C)c1C(=O)COC(=O)c1ccc(F)c(S(=O)(=O)N2CCOCC2)c1
2.69	CCCC(=O)N1CC2(C)CN(C(=O)CCC)CC(C)(C1)C2
2.31	O=C(CSc1nnc(-c2cccs2)o1)NCCN1C(=O)CSC1=O
5.09	COc1cccc2c1N(C(=O)CC(C)C)C(C)(C)c1ssc(=S)c1-2
3.45	CN(C(=O)c1c(F)c(F)c(F)c(F)c1F)C(C)(C)C
5.17	O=[N+]([O-])c1cccc(-c2noc(CC3CCCCC3)n2)c1
3.11	CSc1sc(C(=O)N2CCOCC2)c2c1S(=O)(=O)N(C)c1ccccc1-2
4.47	O=C(COc1ccc2ccccc2c1)N1CCN(S(=O)(=O)c2ccc3c(c2)OCCO3)CC1
4.33	CCOc1ccc(NC(=O)CSc2nc3ccsc3c(=O)n2-c2ccccc2)cc1
4.31	CCOc1cc(C#N)c(NC(=O)c2cc(S(=O)(=O)N3CCOCC3)c(Cl)cc2Cl)cc1OCC
5.31	NC(=O)C1CCN(C(=O)c2ccc3c(=O)n(Cc4ccco4)c(SCC(=O)c4ccccc4)nc3c2)CC1
2.78	O=C(Cn1c(=O)n(-c2ccccc2)c(=O)n1CC(=O)N1CCCCC1)N1CCCCC1
5.04	COc1cc2c(cc1NC(=O)COC(=O)c1cc(OC)c(OC)cc1[N+](=O)[O-])oc1ccccc12
4.77	CCCCOc1ccc(C(=O)Oc2ccc3c(c2)OCO3)cc1OC
4.78	COC(=O)c1ccc(C)c(NC(=O)Cc2coc3cc4c(cc23)CCC4)c1

Same assay, conditions: pH 6.5

Compound	logD
CCCn1c(SCc2cc(=O)n3cc(Br)ccc3n2)nnc1-c1cccc(C)c1	4.43
COc1ccc(-c2nnc(N)s2)cc1OC	2.34
N#Cc1nc(N2CCCC2)nc(N(c2ccccc2)c2ccccc2)n1	5.38

The remaining lines, values ahead:

logD	Compound
4.59	COCCn1c(C)cc(C(=O)CSc2ncnc3sc(C)c(C)c23)c1C
3.3	CCOc1ccc(CC(=O)C2=C(N3CCCC3)CCCC2=O)cc1OCC

Same assay, conditions: pH 7.3

Compound	logD
C=CCn1c(SCC(=O)Nc2ccc(C)c(F)c2)nnc1-c1cccs1	4.48
CC(Sc1nnc(-c2ccc(F)cc2)n1-c1ccccc1)C(N)=O (stereo not drawn)	3.38
COc1cccc(NC(=O)CSc2nnc3ccccn23)c1	2.45
COc1cccc(-c2ccc3c(N)c(C(=O)Nc4ccc(F)c(F)c4)sc3n2)c1	5.86
Cc1nccn1S(=O)(=O)c1ccc(Cl)cc1	2.93

The next lines start with the values.

logD	Compound
4.16	COc1cccc(OC)c1C(=O)Nc1ccc(N2CCN(C(=O)c3ccccc3C)CC2)cc1
5.03	CCOC(=O)c1c(NC(=O)CSc2nnc(C)s2)sc2c1CCCCC2
4.69	O=C(CSc1ncnc2sc3c(c12)CCC3)Nc1ccc(F)cc1
3.79	O=C(CSc1nnc(-c2ccccc2F)n1CCc1ccccc1)N1CCOCC1
4.24	CCn1c(SCC(=O)Nc2ccc(C(=O)OC)cc2)nnc1-c1ccccc1
2.93	CC(C)CCn1c(NCCO)nc2c1c(=O)n(C)c(=O)n2C

Same assay, conditions: pH 8.0

logD	Compound
3.63	CSc1ncccc1C(=O)OCC(=O)Nc1c(C)n(C)n(-c2ccccc2)c1=O

Same assay, conditions: pH 10.0

Compound	logD
Cc1cc(C(F)(F)F)n2nc(-c3nnc(-c4cccc(C(F)(F)F)c4)o3)cc2n1	4.92
O=C(c1ccc2c(c1)C(=O)N(c1nccs1)C2=O)c1ccc2c(c1)C(=O)N(c1nccs1)C2=O	3.25

More lines, now with the values ahead:

logD	Compound
3.67	CCOC(=O)C1=C(C)NC(C)=C(C(=O)OC)C1c1ccco1 (stereo not drawn)
4.61	CCCSc1nc2c(c(=O)n1-c1ccc(Br)cc1)SCC2
4.88	COc1ccc(NC(=O)c2sc3sc(C(=O)Nc4ccc(OC)c(OC)c4)c(N)c3c2N)cc1OC
4.42	COc1ccc(C(=O)Cn2c(N3CCCCCC3)nc3c2c(=O)n(C)c(=O)n3C)cc1

Same assay, conditions: pH 10.5

Compound	logD
CCN(CC)c1ccc(C=C2C(=O)c3ccccc3C2=O)c(OC)c1	5.05
CN(C)c1nc(N)nc(COC(=O)c2ccc(-n3cnnc3)cc2)n1	2.74
Cc1ccc(-n2c(C)cc(=O)cc2C)cc1C	2.95
Cc1cc(C)n2c(SCc3ccc(C(=O)c4ccccc4)cc3)nnc2n1	4.43
COc1cc(C2C(C#N)=C(N)Oc3cc(C)[nH]c(=O)c32)cc(OC)c1OC (stereo not drawn)	2.55

Now from value to compound:

logD	Compound
5.81	Cc1nn(C)cc1-c1cc(C(F)(F)F)n2ncc(C(=O)N(C3CCCCC3)C3CCCCC3)c2n1
4.46	Cc1ccc(S(=O)(=O)N(C)c2ccc(OCC(=O)N3CCN(c4ncccn4)CC3)cc2)cc1
2.89	CC(=O)Oc1cc(C(=O)Nc2ccc(Oc3ccccc3)cc2)cc(OC(C)=O)c1OC(C)=O
4.55	Cc1ccccc1N1C(=O)c2ccc(C(=O)OCC(=O)c3c(N)n(C)c(=O)n(C)c3=O)cc2C1=O
3.53	C=CCNC(=O)CSc1nnc(CCn2nc(C)c(Br)c2C)n1CC

From the SangsterLogP compilation
